Data taken from US8759339B2, “Pyrrolo[2,1-c][1,4]naphthodiazepine linked piperazine compounds and a process for the preparation thereof” (Council of Scientific & Industrial Research, priority 2011, dated 2014).
Read-outs that look alike come from different tables or passages of the source.

What was measured:
calf thymus DNA (CT-DNA) = assay: Thermal denaturation studies with duplex-form calf thymus DNA; type: binding; conditions: [PND]/[DNA] molar ratio 1:5, CT-DNA 100 μM, ligand 20 μM, aqueous sodium phosphate buffer pH 7; for ΔTm after incubation at 37° C. for 0 hr: 0 hr at 37° C.; for ΔTm after incubation at 37° C. for 18 hrs: 18 hrs at 37° C.
Description: Compounds have been subjected to thermal denaturation studies with duplex-form calf thymus DNA (CT-DNA) using an modification of a reported procedure (Newman, M. S. Carcinog-compr. Surv. 1976, 1, 203; (b) Hecht, S. S.; Loy, M.; Hoffman, Carcinog-compr. Surv. 1976, 1, 325). Working solutions in aqueous buffer (10 mM NaH2PO4/Na2HPO4, 1 mM Na2EDTA, pH 7.00+0.01) containing CT-DNA (100 μm in phosphate) and the PND (pyrrolo naphtha diazepine) (20 μm) have been prepared by addition of concentrated PND (pyrrolo naphtha diazepine) solutions in DMSO to obtain a fixed [PND]/[DNA] molar ratio of 1:5. The DNA-PND (pyrrolo naphtha diazepine) solutions have been incubated at 37° C. for 0 and 18 h prior to analysis. Samples have been monitored at 260 nm using a Beckman DU-800 spectrophotometer fitted with high performance temperature controller, and heated at 1° C. min in the 40-110° C. range. DNA helix→coil transition temperatures (Tm) have been obtained from the maxima in the d(A260)/dT derivative plots. Drug-induced alterations in DNA melting behavior are given by: ΔTm=Tm(DNA+PND)−Tm(DNA alone), where the Tm value for the PND-free CT-DNA is 69.1±0.01.
The DNA binding activity for these novel substituted piperazine linked pyrrolo naphtho diazepine hybrids has been examined by thermal denaturation studies using calf thymus (CT) DNA. […] The data for some of the compounds are included in Table 1 for comparison.

[1] = tested on: A549 lung cancer cell line; assay: In vitro anticancer activity, MTT assay; type: cell-based, human; conditions: for IC50: Homo sapiens, A549; for in-vitro cytotoxicity in lung cancer cell line (A549): result in words
Description: (§1) In vitro biological activity studies were carried out at the pharmacology division, IICT, Hyderabad. The compounds were evaluated for in vitro anticancer activity against eight tumour cell lines derived from […] cancer types (breast, lung, liver, skeletal, kidney, prostrate, small intestine) as shown in Table 2. For each compound, dose response curves for each cell line were measured at a minimum of five concentrations at 10 fold dilutions. A protocol of 48 h continuous drug exposure was used and a MTT assay was used to estimate cell viability or growth. The concentration causing 50% inhibition (IC50) compared with the control was calculated. Some of the compounds have been evaluated for their in vitro cytotoxicity in eight cell lines from seven human cancer types. The results are expressed as IC50 determined relative to that of untreated control cells (Table-2).

[2] = tested on: HEPG2 liver cancer cell line; assay: In vitro anticancer activity, MTT assay; type: cell-based, human; conditions: for IC50: Homo sapiens, HepG2; for in-vitro cytotoxicity in liver cancer cell line (HEPG2): result in words
Description: as §1

[3] = tested on: MCF7 breast cancer cell line; assay: In vitro anticancer activity, MTT assay; type: cell-based, human; conditions: for IC50: Homo sapiens, MCF7, breast cancer cell line, MTT, 48 h continuous drug exposure; for in-vitro cytotoxicity in breast cancer cell line (MCF-7): result in words
Description: as §1

[4] = tested on: NCIH460 large cell lung cancer cell line; assay: In vitro anticancer activity, MTT assay; type: cell-based, human; conditions: for IC50: Homo sapiens, NCI-H460, large cell lung cancer cell line, MTT, 48 h continuous drug exposure; for in-vitro cytotoxicity in large cell lung cancer cell line (NCIH460): result in words
Description: as §1

[5] = tested on: PC-3 prostrate cancer cell line; assay: In vitro anticancer activity, MTT assay; type: cell-based, human; conditions: for IC50: Homo sapiens, prostrate cancer cell line, MTT, 48 h continuous drug exposure; for in-vitro cytotoxicity in prostrate cancer cell line (PC-3): result in words
Description: as §1

[6] = In vitro anticancer activity, MTT assay; type: cell-based; conditions: COS-1; kidney cancer cell line; MTT, 48 h continuous drug exposure
Description: as §1

[7] = tested on: COS-1 kidney cancer cell line; assay: In vitro anticancer activity, MTT assay; type: cell-based; conditions: for IC50: COS-1, range over the listed compounds, exposure period of at least 48 hrs, read-out: IC50 against kidney cancer cell lines; for in-vitro cytotoxicity in kidney cancer cell line (COS-1): result in words
Description: as §1

[8] = tested on: IEC-6 small intestine cell line; assay: In vitro anticancer activity, MTT assay; type: cell-based; conditions: for IC50: IEC-6; for in-vitro cytotoxicity in small intestine cancer cell line (IEC-6): result in words
Description: as §1

[9] = tested on: L-6 skeletal cancer cell line; assay: In vitro anticancer activity, MTT assay; type: cell-based; conditions: result in words
Description: as §1

L-6 = assay: In vitro anticancer activity, MTT assay; type: cell-based; conditions: skeletal cancer cell line; MTT, 48 h continuous drug exposure
Description: as §1

[10] = lung cancer cell line, MTT, 48 h continuous drug exposure, read-out: IC50 A549
[11] = range over the listed compounds, exposure period of at least 48 hrs, read-out: IC50 against lung cancer cell lines
[12] = liver cancer cell line, MTT, 48 h continuous drug exposure, read-out: IC50 HEPG2
[13] = range over the listed compounds, exposure period of at least 48 hrs, read-out: IC50 against liver cancer cell lines
[14] = range over the listed compounds, exposure period of at least 48 hrs, read-out: IC50 against small intestine cancer cell lines
[15] = small intestine cell line, MTT, 48 h continuous drug exposure, read-out: IC50 IEC-6

With CCN1CCN(CCOc2cc3cc4c(cc3cc2OC)N=C[C@@H]2CCCN2C4=O)CC1 [15a, 9-Methoxy-8-[2-(4-ethylpiperazino)ethoxy]-(13aS)-1,2,3,13a-tetrahydro-5H-pyrrolo[2,1-c][1,4]naphthodiazepin-5-one] the “ΔTm after incubation at 37° C. for 0 hr” value (calf thymus DNA (CT-DNA)) was 6.1 °C, the “ΔTm after incubation at 37° C. for 18 hrs” value (from here on “ΔTm … for 18 hrs”) (calf thymus DNA (CT-DNA)) was 7.2 °C and the IC50 [1, 10] was 540 nM. The IC50 [1, 11] was 20 to 11900 nM, the “in-vitro cytotoxicity in lung cancer cell line (A549)” value (shortened to “in-vitro cytotoxicity … (A549)”) [1] was “exhibiting in-vitro cytotoxicity” and the IC50 [2, 12] was 200 nM. For the same molecule, the IC50 [2, 13] was 20 to 7320 nM, the “in-vitro cytotoxicity in liver cancer cell line (HEPG2)” value (from here on “in-vitro cytotoxicity … (HEPG2)”) [2] was “exhibiting in-vitro cytotoxicity” and the IC50 [3] was 40 nM. For the same molecule, the “in-vitro cytotoxicity in breast cancer cell line (MCF-7)” value (“in-vitro cytotoxicity … (MCF-7)” below) [3] was “exhibiting in-vitro cytotoxicity”, the IC50 [4] was 1250 nM and the “in-vitro cytotoxicity in large cell lung cancer cell line (NCIH460)” value (“in-vitro cytotoxicity … (NCIH460)” for short) [4] was “exhibiting in-vitro cytotoxicity”. The IC50 [5] was 410 nM, the “in-vitro cytotoxicity in prostrate cancer cell line (PC-3)” value (from here on “in-vitro cytotoxicity … (PC-3)”) [5] was “exhibiting in-vitro cytotoxicity” and the IC50 [6] was 3660 nM. The IC50 [7] was 800 to 4320 nM, the “in-vitro cytotoxicity in kidney cancer cell line (COS-1)” value (shortened to “in-vitro cytotoxicity … (COS-1)”) [7] was “exhibiting in-vitro cytotoxicity” and the IC50 [8, 14] was 10 to 5840 nM. The IC50 [8, 15] was 130 nM, the “in-vitro cytotoxicity in small intestine cancer cell line (IEC-6)” value (shortened to “in-vitro cytotoxicity … (IEC-6)”) [8] was “exhibiting in-vitro cytotoxicity” and the “in-vitro cytotoxicity in skeletal cancer cell line (L-6)” value (“in-vitro cytotoxicity … (L-6)” for short) [9] was “exhibiting in-vitro cytotoxicity”. For the same molecule, the IC50 (L-6) was 1870 nM.
In the case of COc1cc2cc3c(cc2cc1OCCN1CCN(c2ccccc2)CC1)C(=O)N1CCC[C@H]1C=N3 [19a, 9-Methoxy-8-[2-(4-phenylpiperazino)ethoxy]-(3aS)-1,2,3,13a-tetrahydro-5H-pyrrolo[2,1-c][1,4]naphthodiazepin-5-one], the “ΔTm after incubation at 37° C. for 0 hr” value (calf thymus DNA (CT-DNA)) is reported as 6.5 °C, the “ΔTm … for 18 hrs” value (calf thymus DNA (CT-DNA)) is reported as 7.3 °C and the IC50 [1, 10] is reported as 9900 nM. For the same molecule, the IC50 [1, 11] was 20 to 11900 nM, the “in-vitro cytotoxicity … (A549)” value [1] was “exhibiting in-vitro cytotoxicity” and the IC50 [2, 12] was 40 nM. The IC50 [2, 13] was 20 to 7320 nM, the “in-vitro cytotoxicity … (HEPG2)” value [2] was “exhibiting in-vitro cytotoxicity” and the IC50 [3] was 180 nM. For the same molecule, the “in-vitro cytotoxicity … (MCF-7)” value [3] was “exhibiting in-vitro cytotoxicity”, the IC50 [4] was 6 nM and the “in-vitro cytotoxicity … (NCIH460)” value [4] was “exhibiting in-vitro cytotoxicity”. For the same molecule, the IC50 [5] was 300 nM, the “in-vitro cytotoxicity … (PC-3)” value [5] was “exhibiting in-vitro cytotoxicity” and the IC50 [6] was 800 nM. For the same molecule, the IC50 [7] was 800 to 4320 nM, the “in-vitro cytotoxicity … (COS-1)” value [7] was “exhibiting in-vitro cytotoxicity” and the IC50 [8, 14] was 10 to 5840 nM. For the same molecule, the IC50 [8, 15] was 10 nM, the “in-vitro cytotoxicity … (IEC-6)” value [8] was “exhibiting in-vitro cytotoxicity” and the “in-vitro cytotoxicity … (L-6)” value [9] was “exhibiting in-vitro cytotoxicity”. It also gave an IC50 (L-6) of 260 nM.
For COc1cc2cc3c(cc2cc1OCCN1CCN(c2ccccn2)CC1)C(=O)N1CCC[C@H]1C=N3 [23a, 9-Methoxy-8-(2-[4-(2-pyridyl)piperazino]ethoxy)-(13aS)-1,2,3,13a-tetrahydro-5H-pyrrolo[2,1-c][1,4]naphthodiazepin-5-one], the “ΔTm after incubation at 37° C. for 0 hr” value (calf thymus DNA (CT-DNA)) was 5.0 °C, the “ΔTm … for 18 hrs” value (calf thymus DNA (CT-DNA)) was 6.8 °C and the IC50 [1, 10] was 1990 nM. For the same molecule, the IC50 [1, 11] was 20 to 11900 nM, the “in-vitro cytotoxicity … (A549)” value [1] was “exhibiting in-vitro cytotoxicity” and the IC50 [2, 12] was 40 nM. For the same molecule, the IC50 [2, 13] was 20 to 7320 nM, the “in-vitro cytotoxicity … (HEPG2)” value [2] was “exhibiting in-vitro cytotoxicity” and the IC50 [3] was 20 nM. The “in-vitro cytotoxicity … (MCF-7)” value [3] was “exhibiting in-vitro cytotoxicity”, the IC50 [4] was 110 nM and the “in-vitro cytotoxicity … (NCIH460)” value [4] was “exhibiting in-vitro cytotoxicity”. The IC50 [5] was 100 nM, the “in-vitro cytotoxicity … (PC-3)” value [5] was “exhibiting in-vitro cytotoxicity” and the IC50 [6] was 4320 nM. The IC50 [7] was 800 to 4320 nM, the “in-vitro cytotoxicity … (COS-1)” value [7] was “exhibiting in-vitro cytotoxicity” and the IC50 [8, 14] was 10 to 5840 nM. For the same molecule, the IC50 [8, 15] was 10 nM, the “in-vitro cytotoxicity … (IEC-6)” value [8] was “exhibiting in-vitro cytotoxicity” and the “in-vitro cytotoxicity … (L-6)” value [9] was “exhibiting in-vitro cytotoxicity”. For the same molecule, the IC50 (L-6) was 740 nM.
